These results are taken from patent US10172358B2, “Thiopicolinamide compounds with fungicidal activity” (Dow AgroSciences LLC, priority 2016, dated 2019).

Where two headings read alike, the source gives them in different places.

For one assay, the system named is Zymoseptoria tritici. The assay can be described thus: Fungicidal activity: leaf blotch of wheat (SEPTTR), disease control on wheat seedlings. Format: in vivo, Zymoseptoria tritici on wheat plants (variety Yuma). The following applies: for pest or weed control at 121.5 g/ha: low volume application, 121.5 g/H; for pest or weed control at 100 ppm: high volume application. The protocol: Evaluation of Fungicidal Activity: Leaf Blotch of Wheat (Zymoseptoria Tritici; Bayer Code […]) Technical grades of materials were dissolved in acetone, which were then mixed with nine volumes of water (H2O) containing 110 ppm Triton X-100. The fungicide solutions were applied onto wheat seedlings using an automated booth sprayer to run-off. All sprayed plants were allowed to air dry prior to further handling. All fungicides were evaluated using the aforementioned method for their activity vs. all target diseases, unless stated otherwise. Wheat leaf blotch and brown rust activity were also evaluated using track spray applications, in which case the fungicides were formulated as EC formulations, containing 0.1% Trycol 5941 in the spray solutions. Wheat plants (variety Yuma) were grown from seed in a greenhouse in 50% mineral soil/50% soil-less Metro mix until the first leaf was fully emerged, with 7-10 seedlings per pot. These plants were inoculated with an aqueous spore suspension of Zymoseptoria tritici either prior to or after fungicide treatments. After inoculation the plants were kept in 100% relative humidity (one day in a dark dew chamber followed by two to three days in a lighted dew chamber at 20° C.) to permit spores to germinate and infect the leaf. The plants were then transferred to a greenhouse set at 20° C. for disease to develop. When disease symptoms were fully expressed on the 1st leaves of untreated plants, infection levels were assessed on a scale of 0 to 100 percent disease severity. Percent disease control was calculated using the ratio of disease severity on treated plants relative to untreated plants.

A further assay relates to Puccinia triticina. Description: Fungicidal activity: wheat brown rust (PUCCRT), disease control on wheat seedlings. In kind it is in vivo, Puccinia triticina on wheat plants (variety Yuma). The following applies: for pest or weed control at 121.5 g/ha: low volume application, 121.5 g/H; for pest or weed control at 100 ppm: high volume application. The protocol:
Technical grades of materials were dissolved in acetone, which were then mixed with nine volumes of water (H2O) containing 110 ppm Triton X-100. The fungicide solutions were applied onto wheat seedlings using an automated booth sprayer to run-off. All sprayed plants were allowed to air dry prior to further handling. All fungicides were evaluated using the aforementioned method for their activity vs. all target diseases, unless stated otherwise. Wheat leaf blotch and brown rust activity were also evaluated using track spray applications, in which case the fungicides were formulated as EC formulations, containing 0.1% Trycol 5941 in the spray solutions. Evaluation of Fungicidal Activity: Wheat Brown Rust (Puccinia triticina; Synonym: Puccinia recondita f. Sp. Tritici; Bayer Code PUCCRT) Wheat plants (variety Yuma) were grown from seed in a greenhouse in 50% mineral soil/50% soil-less Metro mix until the first leaf was fully emerged, with 7-10 seedlings per pot. These plants were inoculated with an aqueous spore suspension of Puccinia triticina either prior to or after fungicide treatments. After inoculation the plants were kept in a dark dew room at 22° C. with 100% relative humidity overnight to permit spores to germinate and infect the leaf. The plants were then transferred to a greenhouse set at 24° C. for disease to develop. Fungicide formulation, application and disease assessment followed the procedures as described in the Example A. The results of the evalution are shown below in Table 4.

[1] abbreviates: 24 h, 1 day protectant, read-out: SEPTTR 1DP disease control, LV activity at 121.5 g/H.
The mark [2] stands for this setting: 24 h, 1 day protectant, read-out: PUCCRT 1DP disease control, LV activity at 121.5 g/H.
Setting [3] is: 72 h, 3 day curative, read-out: PUCCRT 3DC disease control, LV activity at 121.5 g/H.
Setting [4] is: 72 h, 3 day curative, read-out: SEPTTR 3DC disease control, LV activity at 121.5 g/H.
[5] abbreviates: 24 h, 1 day protectant, read-out: PUCCRT 1DP disease control, HV activity at 100 ppm.
The mark [6] stands for this setting: 72 h, 3 day curative, read-out: PUCCRT 3DC disease control, HV activity at 100 ppm.
The mark [7] stands for this setting: 24 h, 1 day protectant, read-out: SEPTTR 1DP disease control, HV activity at 100 ppm.
Setting [8] is: 72 h, 3 day curative, read-out: SEPTTR 3DC disease control, HV activity at 100 ppm.

Turning to `COc1ccnc(C(=S)N[C@@H](C)C(=O)O[C@H](C)C(c2ccc(F)cc2)c2ccc(F)cc2)c1OC(C)=O` [Compound 55], the pest or weed control at 121.5 g/ha in the assay with Zymoseptoria tritici (setting [1]) was not above 80%.
For `COc1cc(Cl)ccc1C(c1ccc(Cl)cc1OC)[C@H](C)OC(=O)[C@H](C)NC(=S)c1nccc(OC)c1OC(C)=O` [Compound 52], the pest or weed control at 121.5 g/ha was more than 80% in the assay with Puccinia triticina (setting [2]), not above 80% with Puccinia triticina (setting [3]), more than 80% with Zymoseptoria tritici (setting [1]) and more than 80% in the assay on Zymoseptoria tritici (setting [4]).
Regarding `COc1ccnc(C(=S)N[C@@H](C)C(=O)O[C@@H](C)[C@H](Oc2ccc(Cl)cc2)C(C)C)c1OC(C)=O` [Compound 43], the pest or weed control at 121.5 g/ha is more than 80% with Puccinia triticina (setting [2]), more than 80% in the assay on Puccinia triticina (setting [3]), more than 80% in the assay with Zymoseptoria tritici (setting [1]) and not above 80% in the assay on Zymoseptoria tritici (setting [4]).
On to `COc1ccnc(C(=S)N[C@@H](C)C(=O)O[C@@H](C)C(c2ccc(C)cc2C)c2ccc(C)cc2C)c1OC(C)=O` [Compound 48], for which the pest or weed control at 121.5 g/ha in the assay with Puccinia triticina (setting [2]), with Zymoseptoria tritici (setting [1]) and with Zymoseptoria tritici (setting [4]) was more than 80% in each case.
For the molecule `COc1ccnc(C(=S)N[C@@H](C)C(=O)O[C@H](C(C)C)[C@H](C)Oc2ccc(C)cc2)c1O` [Compound 1], the pest or weed control at 100 ppm was more than 80% in the assay on Puccinia triticina (setting [5]), more than 80% in the assay on Puccinia triticina (setting [6]), not above 80% in the assay on Zymoseptoria tritici (setting [7]) and not above 80% with Zymoseptoria tritici (setting [8]).
Turning to `C=CC[C@@H](Oc1ccccc1)[C@H](C)OC(=O)[C@H](C)NC(=S)c1nccc(OC)c1O` [Compound 16], the pest or weed control at 100 ppm in the assay with Puccinia triticina (setting [5]) is more than 80%; with Puccinia triticina (setting [6]), more than 80%; in the assay on Zymoseptoria tritici (setting [7]), more than 80%; in the assay on Zymoseptoria tritici (setting [8]), not above 80%.
As to `CCCCC[C@@H](OC(=O)[C@H](C)NC(=S)c1nccc(OC)c1O)[C@H](C)Oc1ccccc1` [Compound 8], the pest or weed control at 100 ppm is more than 80% in the assay on Puccinia triticina (setting [5]), not above 80% with Zymoseptoria tritici (setting [7]) and not above 80% in the assay with Zymoseptoria tritici (setting [8]).
As to `COc1cc(F)ccc1[C@H](c1ccc(C)cc1)[C@H](C)OC(=O)[C@H](C)NC(=S)c1nccc(OC)c1OC(C)=O` [Compound 45], the pest or weed control at 121.5 g/ha in the assay on Puccinia triticina (setting [2]), with Puccinia triticina (setting [3]), in the assay on Zymoseptoria tritici (setting [1]) and in the assay on Zymoseptoria tritici (setting [4]) was more than 80% throughout.
As to `COc1ccnc(C(=S)N[C@@H](C)C(=O)O[C@@H](C)[C@@H](c2ccccc2)c2ccc(F)cc2)c1O` [Compound 4], the pest or weed control at 100 ppm in the assay on Puccinia triticina (setting [5]), with Zymoseptoria tritici (setting [7]) and in the assay with Zymoseptoria tritici (setting [8]) was more than 80% throughout.
Regarding `COc1cc(F)ccc1[C@H](c1ccccc1)[C@H](C)OC(=O)[C@H](C)NC(=S)c1nccc(OC)c1OC(C)=O` [Compound 44], the pest or weed control at 121.5 g/ha with Puccinia triticina (setting [2]) is more than 80%; with Puccinia triticina (setting [3]), not above 80%; in the assay with Zymoseptoria tritici (setting [1]), more than 80%; in the assay with Zymoseptoria tritici (setting [4]), more than 80%.
On to `COc1ccc(C(c2ccc(OC)cc2F)[C@H](C)OC(=O)[C@H](C)NC(=S)c2nccc(OC)c2OC(C)=O)c(F)c1` [Compound 53], for which the pest or weed control at 121.5 g/ha in the assay with Puccinia triticina (setting [2]) was more than 80%; in the assay on Puccinia triticina (setting [3]) it was not above 80%; in the assay on Zymoseptoria tritici (setting [1]) it was more than 80%; in the assay on Zymoseptoria tritici (setting [4]) it was more than 80%.
As for `COc1cc(F)ccc1[C@H](c1ccc(C)cc1)[C@H](C)OC(=O)[C@H](C)NC(=S)c1nccc(OC)c1O` [Compound 18], the pest or weed control at 100 ppm in the assay with Puccinia triticina (setting [5]), in the assay with Puccinia triticina (setting [6]), with Zymoseptoria tritici (setting [7]) and with Zymoseptoria tritici (setting [8]) was more than 80% each time.
`COc1ccnc(C(=S)N[C@@H](C)C(=O)O[C@H](C)C(c2ccc(F)cc2)c2ccc(F)cc2)c1O` [Compound 7]: the pest or weed control at 100 ppm in the assay with Puccinia triticina (setting [5]) and with Zymoseptoria tritici (setting [7]) was not above 80% each time.
Regarding `COc1ccc(C(c2ccc(OC)cc2F)[C@H](C)OC(=O)[C@H](C)NC(=S)c2nccc(OC)c2O)c(F)c1` [Compound 5], the pest or weed control at 100 ppm with Puccinia triticina (setting [5]), in the assay with Zymoseptoria tritici (setting [7]) and with Zymoseptoria tritici (setting [8]) was more than 80% throughout.
With `COc1cc(F)ccc1[C@H](c1ccccc1)[C@H](C)OC(=O)[C@H](C)NC(=S)c1nccc(OC)c1O` [Compound 12], the pest or weed control at 100 ppm in the assay with Puccinia triticina (setting [5]) was more than 80%; in the assay on Puccinia triticina (setting [6]), not above 80%; with Zymoseptoria tritici (setting [7]), more than 80%; with Zymoseptoria tritici (setting [8]) it was not above 80%.
Take `CCCCC[C@H](OC(=O)[C@H](C)NC(=S)c1nccc(OC)c1OC(C)=O)[C@@H](C)Oc1ccccc1` [Compound 42]: the pest or weed control at 121.5 g/ha in the assay with Puccinia triticina (setting [2]), in the assay with Puccinia triticina (setting [3]) and in the assay on Zymoseptoria tritici (setting [1]) was not above 80% each time.
Take `COc1ccnc(C(=S)N[C@H](C)C(=O)O[C@@H](C)C(c2ccc(F)cc2)c2ccc(F)cc2)c1OC(C)=O` [Compound 59]: the pest or weed control at 121.5 g/ha is not above 80% in the assay on Puccinia triticina (setting [2]), not above 80% in the assay with Puccinia triticina (setting [3]) and more than 80% in the assay on Zymoseptoria tritici (setting [1]).
In the case of `COc1ccnc(C(=S)N[C@@H](C)C(=O)O[C@H](C(C)C)[C@H](C)Oc2ccc(C)cc2)c1OC(C)=O` [Compound 56], the pest or weed control at 121.5 g/ha in the assay on Puccinia triticina (setting [2]) is more than 80%; in the assay on Puccinia triticina (setting [3]), more than 80%; with Zymoseptoria tritici (setting [1]) it was not above 80%; in the assay with Zymoseptoria tritici (setting [4]), not above 80%.
With `CCCCC[C@H](OC(=O)[C@H](C)NC(=S)c1nccc(OC)c1O)[C@@H](C)Oc1ccccc1` [Compound 10], the pest or weed control at 100 ppm in the assay with Puccinia triticina (setting [5]) is not above 80%.
Turning to `COc1ccccc1C(c1ccccc1OC)[C@H](C)OC(=O)[C@H](C)NC(=S)c1nccc(OC)c1OC(C)=O` [Compound 54], the pest or weed control at 121.5 g/ha in the assay on Puccinia triticina (setting [2]), with Zymoseptoria tritici (setting [1]) and in the assay on Zymoseptoria tritici (setting [4]) was more than 80% each time.
With `COc1ccnc(C(=S)N[C@@H](C)C(=O)O[C@@H](C)C(c2ccc(Cl)cc2)c2ccc(Cl)cc2)c1OC(C)=O` [Compound 47], the pest or weed control at 121.5 g/ha in the assay with Puccinia triticina (setting [2]) was more than 80%; with Puccinia triticina (setting [3]) it was not above 80%; with Zymoseptoria tritici (setting [1]), more than 80%; in the assay with Zymoseptoria tritici (setting [4]), more than 80%.
As for `COc1ccnc(C(=S)N[C@@H](C)C(=O)O[C@@H](C)[C@@H](c2ccc(C)cc2)c2ccc(F)cc2C)c1OC(C)=O` [Compound 46], the pest or weed control at 121.5 g/ha in the assay on Puccinia triticina (setting [2]), with Puccinia triticina (setting [3]), in the assay on Zymoseptoria tritici (setting [1]) and in the assay on Zymoseptoria tritici (setting [4]) was more than 80% each time.
On to `COc1ccc(O[C@@H](C)[C@H](OC(=O)[C@H](C)NC(=S)c2nccc(OC)c2O)C(C)C)cc1` [Compound 11], for which the pest or weed control at 100 ppm is more than 80% with Puccinia triticina (setting [5]), more than 80% with Puccinia triticina (setting [6]), more than 80% in the assay on Zymoseptoria tritici (setting [7]) and not above 80% in the assay with Zymoseptoria tritici (setting [8]).
For the molecule `COc1ccnc(C(=S)N[C@@H](C)C(=O)O[C@H](CC(C)C)[C@H](C)Oc2ccccc2)c1O` [Compound 21], the pest or weed control at 100 ppm with Zymoseptoria tritici (setting [7]) and in the assay with Zymoseptoria tritici (setting [8]) was not above 80% throughout.
`CCC[C@H](OC(=O)[C@H](C)NC(=S)c1nccc(OC)c1O)[C@@H](C)Oc1ccccc1` [Compound 34]: in the assay with Zymoseptoria tritici (setting [7]), the pest or weed control at 100 ppm is not above 80%.
As to `COc1ccnc(C(=S)N[C@H](C)C(=O)O[C@@H](C)C(c2ccc(F)cc2)c2ccc(F)cc2)c1O` [Compound 15], the pest or weed control at 100 ppm in the assay on Zymoseptoria tritici (setting [7]) is more than 80%.
